Experimental data published in US12692249B2, “WDR5 inhibitors and modulators” (Vanderbilt University, priority 2019, dated 2026).
Like-named read-outs stand apart in the source and are kept apart here.

How the values were obtained:
WDR5 = WDR5 (Homo sapiens, UniProt P61964); test: TR-FRET competition binding assay, displacement of 10mer-Thr-FAM MLL peptide probe from His-tagged WDR5; settings: WDR5-His tag (residues 24-334) 2 nM; 10mer-Thr-FAM 150 nM; 60 min, room temperature; read-out: Ki for Inhibition of WDR5 by TR-FRET assay
[1] = test system: MV4:11 human cancer cell lines; test: Cellular viability / anti-proliferative assay, CellTiter-Glo, 5 day protocol; format: cell-based; settings: Homo sapiens, MV4-11, 120 h, read-out: GI50 on cellular proliferation of MV4:11 human cancer cell lines
Method in brief: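 MV-4-11 cells in IMDM with 10% FBS, 200 cells/well, exposed 5 days to 22 two-fold dilutions from 30 μM, final DMSO 0.3%. Viability read by CellTiter-Glo luminescence; GI50 from sigmoidal dose-response fit, mean of at least two replicates.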

[2] = MV4:11 cells, 5 day incubation, CellTiter-Glo, mean of at least two replicates

Ki (WDR5) [pM]	GI50 [1, 2] [pM]	Compound	GI50 [1] [pM]
45	< 20000	Cc1cc(OCCN(C)C)c2cncc(N3CCc4c(cc(Cn5ccnc5)cc4-c4cn(C)nc4C(F)(F)F)C3=O)c2c1 [Example 106, 7-((1H-Imidazol-1-yl)methyl)-8′-(2-(dimethylamino)ethoxy)-6′-methyl-5-(1-methyl-3-(trifluoromethyl)-1H-pyrazol-4-yl)-3,4-dihydro-1H-[2,4′-biisoquinolin]-1-one]	–
21	452000	CCc1ccc2c(N3CCc4c(cc(Cn5ccnc5)cc4-c4cn(C)nc4C(F)(F)F)C3=O)cccc2n1 [Example 107]	–
42	40000	Cc1cc2c(N3CCc4c(cc(Cn5ccnc5)cc4-c4cn(C)nc4C(F)(F)F)C3=O)cccc2nc1C [Example 108, 7-((1H-imidazol-1-yl)methy)-2-(2,3-dimethylquinolin-5-yl)-5-(1-methyl-3-(trifluoromethyl)-1H-pyrazol-4-yl)-3,4-dihydroisoquinolin-1(2H)-one]	–
< 20	22000	CCc1cc(Br)c2nc(C)cc(N3CCc4c(cc(Cn5ccnc5)cc4-c4cn(C)nc4C(F)(F)F)C3=O)c2c1 [Example 109, 7-((1H-imidazol-1-yl)methyl)-2-(8-bromo-6-ethyl-2-methylquinolin-4-yl)-5-(1-methyl-3-(trifluoromethyl)-1H-pyrazol-4-yl)-3,4-dihydroisoquinolin-1(2H)-one]	–
21	< 20000	CCc1cc(N2CCN(C)CC2)c2nc(C)cc(N3CCc4c(cc(Cn5ccnc5)cc4-c4cn(C)nc4C(F)(F)F)C3=O)c2c1 [Example 110, 7-((1H-imidazol-1-yl)methyl)-2-(6-ethyl-2-methyl-8-(4-methylpiperazin-1-yl)quinolin-4-yl)-5-(1-methyl-3-(trifluoromethyl)-1H-pyrazol-4-yl)-3,4-dihydroisoquinolin-1(2H)-one]	–
37	23000	Cc1cc(N2CCN(C)C(=O)C2)c2cncc(N3CCc4c(cc(Cn5ccnc5)cc4-c4cn(C)nc4C(F)(F)F)C3=O)c2c1 [Example 112, 7-((1H-Imidazol-1-yl)methyl)-6′-methyl-5-(1-methyl-3-(trifluoromethyl)-1H-pyrazol-4-yl)-8′-(4-methyl-3-oxopiperazin-1-yl)-3,4-dihydro-1H-[2,4′-biisoquinolin]-1-one]	–
23	< 20000	CCc1cc(N2CC(=O)N(C)C2)c2nc(C)cc(N3CCc4c(cc(Cn5ccnc5)cc4-c4cn(C)nc4C(F)(F)F)C3=O)c2c1 [Example 113, 7-((1H-Imidazol-1-yl)methyl)-2-(6-ethyl-2-methyl-8-(3-methyl-4-oxoimidazolidin-1-yl)quinolin-4-yl)-5-(1-methyl-3-(trifluoromethyl)-1H-pyrazol-4-yl)-3,4-dihydroisoquinolin-1(2H)-one]	–
38	43000	COc1cc2c(N3CCc4c(cc(Cn5ccnc5)cc4-c4cn(C)nc4C(F)(F)F)C3=O)cccc2nc1C [Example 114, 7-((1H-Imidazol-1-yl)methyl)-2-(3-methoxy-2-methylquinolin-5-yl)-5-(1-methyl-3-(trifluoromethyl)-1H-pyrazol-4-yl)-3,4-dihydroisoquinolin-1(2H)-one]	–
31	40000	CCc1cc(F)c2cncc(N3CCc4c(cc(Cn5ccnc5)cc4-c4cn(C)nc4C(F)(F)F)C3=O)c2c1 [Example 115, 7-((1H-Imidazol-1-yl)methyl)-6′-ethyl-8′-fluoro-5-(1-methyl-3-(trifluoromethyl)-1H-pyrazol-4-yl)-3,4-dihydro-1H-[2,4′-biisoquinolin]-1-one]	–

Compound	Ki (WDR5) [pM]	GI50 [1, 2] [pM]	GI50 [1] [pM]
CCc1cc(OC)c2cncc(N3CCc4c(cc(Cn5ccnc5)cc4-c4cn(C)nc4C(F)(F)F)C3=O)c2c1 [Example 116, 7-((1H-Imidazol-1-yl)methy)-6′-ethyl-8-methoxy-5-(1-methyl-3-(trifluoromethyl)-1H-pyrazol-4-yl)-3,4-dihydro-1H-[2,4′-biisoquinolin]-one]	28	–	< 20000
